Data from the supplement of paper PMC4862054.

Legend:
Settings in all cases: incubation time: 72 h
[1] = tested on: BT-474; experiment: normalised response (% of control), CellTox Green; higher = less cell death (100 = DMSO, 0 = benzethonium chloride kill control)
Method in brief: (§1)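 Every value is a normalised signal taken at one concentration of a dilution series. Compound was placed in 384-well plates at 5 concentrations in 10-fold steps over a compound-specific 10,000-fold range, and 20 µl of breast cancer cell suspension was seeded onto it. After 72 h, CellTox Green fluorescence (485/520 nm) was measured first and CellTiter-Glo luminescence second, following 10 min at room temperature. Each plate was scaled to 0.1 % DMSO (100) and a positive kill control (0).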

[2] = tested on: BT-549; experiment: as above
Method in brief: as §1

[3] = tested on: CAL-120; experiment: as above
Method in brief: as §1

[4] = tested on: CAL-148; experiment: as above
Method in brief: as §1

[5] = tested on: CAL-51; experiment: as above
Method in brief: as §1

[6] = tested on: CAL-85-1; experiment: as above
Method in brief: as §1

[7] = tested on: DU-4475; experiment: as above
Method in brief: as §1

[8] = tested on: HCC1143; experiment: as above
Method in brief: as §1

[9] = tested on: HCC1599; experiment: as above
Method in brief: as §1

[10] = tested on: HDQ-P1; experiment: as above
Method in brief: as §1

[11] = tested on: Hs578T; experiment: as above
Method in brief: as §1

[12] = tested on: MCF-10A; experiment: as above
Method in brief: as §1

[13] = tested on: MDA-MB-231; experiment: as above
Method in brief: as §1

[14] = tested on: MDA-MB-436; experiment: as above
Method in brief: as §1

[15] = tested on: MDA-MB-453; experiment: as above
Method in brief: as §1

[16] = tested on: MDA-MB-468; experiment: as above
Method in brief: as §1

[17] = tested on: MFM-223; experiment: as above
Method in brief: as §1

[18] = tested on: BT-474; experiment: normalised response (% of control), CellTiter-Glo; higher = more viable cells (100 = DMSO, 0 = benzethonium chloride kill control)
Method in brief: as §1

[19] = tested on: BT-549; experiment: as above
Method in brief: as §1

[20] = tested on: CAL-120; experiment: as above
Method in brief: as §1

[21] = tested on: CAL-148; experiment: as above
Method in brief: as §1

[22] = tested on: CAL-51; experiment: as above
Method in brief: as §1

[23] = tested on: CAL-85-1; experiment: as above
Method in brief: as §1

[24] = tested on: DU-4475; experiment: as above
Method in brief: as §1

[25] = tested on: HCC1143; experiment: as above
Method in brief: as §1

[26] = tested on: HCC1599; experiment: as above
Method in brief: as §1

[27] = tested on: HCC1937; experiment: as above
Method in brief: as §1

[28] = tested on: HDQ-P1; experiment: as above
Method in brief: as §1

[29] = tested on: Hs578T; experiment: as above
Method in brief: as §1

[30] = tested on: MCF-10A; experiment: as above
Method in brief: as §1

[31] = tested on: MDA-MB-231; experiment: as above
Method in brief: as §1

[32] = tested on: MDA-MB-436; experiment: as above
Method in brief: as §1

[33] = tested on: MDA-MB-453; experiment: as above
Method in brief: as §1

[34] = tested on: MDA-MB-468; experiment: as above
Method in brief: as §1

[35] = tested on: MFM-223; experiment: as above
Method in brief: as §1

[36] = tested on: SK-BR-3; experiment: as above
Method in brief: as §1

[37] = tested on: HCC1937; experiment: normalised response (% of control), CellTox Green; higher = less cell death (100 = DMSO, 0 = benzethonium chloride kill control)
Method in brief: as §1

SMILES	normalised response [1] [%]	normalised response [2] [%]	normalised response [3] [%]	normalised response [4] [%]	normalised response [5] [%]	normalised response [6] [%]	normalised response [7] [%]	normalised response [8] [%]	normalised response [9] [%]	normalised response [10] [%]	normalised response [11] [%]	normalised response [12] [%]	normalised response [13] [%]	normalised response [14] [%]	normalised response [15] [%]	normalised response [16] [%]	normalised response [17] [%]	normalised response [18] [%]	normalised response [19] [%]	normalised response [20] [%]	normalised response [21] [%]	normalised response [22] [%]	normalised response [23] [%]	normalised response [24] [%]	normalised response [25] [%]	normalised response [26] [%]	normalised response [27] [%]	normalised response [28] [%]	normalised response [29] [%]	normalised response [30] [%]	normalised response [31] [%]	normalised response [32] [%]	normalised response [33] [%]	normalised response [34] [%]	normalised response [35] [%]	normalised response [36] [%]	normalised response [37] [%]
CCCCCCCCc1ccc(CCC(N)(CO)CO)cc1 [Fingolimod] (1000 nM)	103	131	99.4	107	106	101	103	111	106	89	106	57.9	122	90.6	103	160	102	94.6	99.3	96.1	101	80.5	103	100	101	114	103	103	99.9	103	94.3	103	102	98.1	107	102	–
O=C1NC(=O)[C@@H](c2cn3c4c(cccc24)CCC3)[C@@H]1c1c[nH]c2ccccc12 [Tivantinib] (100 nM)	94.2	106	97.9	–	103	93.4	98.7	60.7	85.6	–	75	113	110	91.5	104	116	89.4	106	92.4	103	96.9	115	89.5	96.5	93.9	127	94.6	105	94.6	97.7	99.2	98	77.3	96.1	99	92	100
CN(C)CCN1C(=O)c2cccc3cc(N)cc(c23)C1=O [Amonafide] (1000 nM)	99.3	130	98.9	93.9	106	100	96.7	100	102	106	113	100	122	–	106	52	97.3	87.5	97.2	96.2	87.2	113	93.6	87.1	97.6	106	89.9	102	93.6	92.2	95.6	95.2	107	91.6	101	89.5	116
Cc1ccc(NC(=O)c2ccc(CN3CCN(C)CC3)cc2)cc1Nc1nccc(-c2cccnc2)n1 [Imatinib] (1000 nM)	98.8	121	106	101	103	110	101	113	104	–	104	101	107	–	103	137	105	102	106	108	103	96.3	104	105	99.2	101	93.6	101	105	111	106	102	111	99.9	104	105	–
Nc1nc(OCc2cc(Br)cs2)c2[nH]cnc2n1 [Lomeguatrib] (1000 nM)	100	108	102	99.9	104	98.9	101	117	93.2	112	100	93.5	104	–	103	139	82.9	103	96.6	96.6	99.3	103	104	102	101	118	97.8	102	102	104	103	97.6	105	100	104	103	111
c1ccc([C@H]2CN3CCSC3=N2)cc1 [Levamisole] (1000 nM)	102	120	100	107	103	107	106	101	104	75.4	–	113	117	85	96.9	68.7	102	100	100	101	103	73.4	104	99.2	109	98.4	99.6	106	101	109	104	104	105	110	105	113	108
CN(C)C[C@@H]1CCn2cc(c3ccccc32)C2=C(C(=O)NC2=O)c2cn(c3ccccc23)CCO1 [Ruboxistaurin] (1000 nM)	–	106	98.7	55	78.1	111	100	109	95	98.5	–	103	97.2	106	95.9	122	79.2	87.3	91.1	83.7	76.6	93	103	80.7	90	111	86	85.8	104	86.1	92.6	92.2	96.1	73.8	86.8	87.7	104
Cn1cncc1[C@@](N)(c1ccc(Cl)cc1)c1ccc2c(c1)c(-c1cccc(Cl)c1)cc(=O)n2C [Tipifarnib] (1 nM)	–	–	–	–	–	–	–	–	–	–	–	–	–	–	–	–	–	89.8	102	92.2	97.3	90.2	102	103	94.6	93.1	93.4	93.5	96.2	94.5	99.5	88	109	93.4	96.3	102	–
C[C@]12CC[C@H](O)CC1=CC[C@@H]1[C@@H]2CC[C@]2(C)C(c3cccnc3)=CC[C@@H]12 [Abiraterone] (0.5 nM)	–	–	–	–	–	–	–	–	–	–	–	–	–	–	–	–	–	104	105	97.6	108	95.7	106	94.5	94.7	119	96.2	106	102	102	105	94.7	114	109	98	106	–
C[C@]12CC[C@H](O)CC1=CC[C@@H]1[C@@H]2CC[C@]2(C)C(c3cccnc3)=CC[C@@H]12 [Abiraterone] (5 nM)	–	–	–	–	–	–	–	–	–	–	–	–	–	–	–	–	–	107	95.6	95.7	91.8	136	110	109	101	116	94.6	99.5	104	102	106	103	116	99	97.5	111	–
CN(C)C[C@@H]1CCn2cc(c3ccccc32)C2=C(C(=O)NC2=O)c2cn(c3ccccc23)CCO1 [Ruboxistaurin] (10 nM)	–	–	–	–	–	–	–	–	–	–	–	–	–	–	–	–	–	99.1	95.5	94.3	96.1	91.4	95.6	95.3	99.9	104	99.5	101	98.1	98.3	94	101	100	103	94.6	116	–
